Assay results from ChEMBL document CHEMBL3352759, “Reduction in lipophilicity improved the solubility, plasma-protein binding, and permeability of tertiary sulfonamide RORc inverse agonists” (Bioorg Med Chem Lett, 2014).

Legend:
[1] = Apparent permeability from basolateral to apical side of MDCK cells at 2 uM by LC-MS/MS analysis; type: ADME, cell-based, Canis lupus familiaris; conditions: dog
[2] = Apparent permeability from apical to basolateral side of MDCK cells at 2 uM by LC-MS/MS analysis; type: ADME, cell-based, Canis lupus familiaris; conditions: dog

| Structure (SMILES) | Papp B→A at 2 µM [1] [×10⁻⁶ cm/s] | Papp A→B at 2 µM [2] [×10⁻⁶ cm/s] |
| --- | --- | --- |
| CC(C)CN(Cc1ccc(-c2ccc(S(C)(=O)=O)cc2)cc1)S(=O)(=O)Cc1ccccc1 | 2 | 3 |
| CC(=O)N1CCN(c2ccc(CN(C3CCC3)S(=O)(=O)Cc3ccccc3)cc2)CC1 | 24 | 24 |
